Measured values published in US9238658B2, “Substituted piperidinyl-carboxamide derivatives useful as SCD 1 inhibitors” (Janssen Pharmaceutica NV, priority 2011, dated 2016).
“And” between values parts separate entries of the source, which are not always exact repeats. Identical values can stand only once. Marks after values point to notes of the source that are not given here.

Columns and labels:
SCD1 [1] = biological target: SCD1 (Rattus norvegicus (Rat), UniProt P07308); assay: SCD1 enzymatic assay in rat liver microsomes (RLM); assay type: biochemical; conditions: for inhibition at 1 µM / % Inh. @ 1 μM: 1 μM test compound
Description: Step 1: Preparation of Rat Liver Microsome (RLM)
Sprague Dawley rats from Charles River (200-225 g) underwent 2-cycle of fast-re-feeding (24-hour fast followed by 24-hour feeding with fat-free high carbohydrate diet, Research Diet, D00042802). The livers were removed and homogenized 1:4 (w/v) with pre-chilled, homogenizing buffer (10 mM Tris-HCl, 0.25 M sucrose, 1 mM EDTA, pH 7.4, supplemented with protease inhibitor cocktail). The homogenate was spun at 12,000×g for 15 min at 4° C. The supernatant was then re-centrifuged at 100,000×g for 60 min at 4° C. The pellet was re-suspended in 2 ml pre-chilled […] potassium phosphate buffer, pH 7.2, 10 mM EDTA at a concentration of 20 mg/ml. The resulting rat liver microsome (RLM) preparation was stored at […].
Step 2: SCD1 Enzymatic Assay in RLM:
The SCD1 enzymatic assay was done in a volume of 50 μL using 10 μg of RLM (prepared as described above) in a 96-well polypropylene plate (enzyme reaction buffer contains 0.1 M K-Phosphate Buffer, 10 mM ATP, 6 mM MgCl2, 1 mM CoA, 1 mM β-NADH, 1.6 mM L-glutathione, 20 μM Stearoyl-CoA). Stearoyl-[9,10-^3H]—CoA (ARC-0390, 1 mCi/mL, 60 Ci/mmol,) was added at a final concentration of 2 μCi/mL. Test compound was then added to the reaction mixture at the selected concentration. After incubation at room temperature for 2 hours, 5 μL 1 N HCl was added to stop the reaction, followed by addition of 25 μL of 10% charcoal. The reaction mixture was then transferred to 96-well Multiscreen plate (Millipore, Cat# MSFCN6B50). [^3H2O] was collected into Opti-plate (PE, Cat #6005290) by centrifuge, at 1,000 rpm for 2 minutes. 150 μL Microscint 40 (PE, cat #6013641) was then added to each well and counted on Topcount for [^3H] counts per minute (cpm). The measured cpm values were fitted with Sigmoidal dose-response curve fit with Graphpad Prism.

SCD1 [2] = biological target: T1, SCD1 (Homo sapiens (Human), UniProt O00767); assay: SCD1 14C-palmitate assay in A431 cells; assay type: cell-based; conditions: read-out: A431 cells 14C-PA IC50
Description: Human epithelial carcinoma A431 cells were seeded at 400,000 cells per well in 48-well tissue culture plate and treated with 2 cycles of fasting in low glucose medium (DMEM, Cellgro #10-014-CV, 1 g/L glucose, 2% Charcoal Filtered FBS) for 24 hours; and re-feeding with high glucose medium for 24 hours (DMEM, Cellgro #10-013-CM, 4.5 g/L glucose, 10% Charcoal Filtered FBS and 0.05 mg/mL Lilly Humulin R, Cat.#, HI-210). Prior to running the assay, the cells were washed twice with high glucose medium (400 μL), followed by addition of 250 μL assay buffer (DMEM, 4.5 g/L glucose, 0.05 mg/mL Human Insulin, 0.1% Fatty Acid Free BSA) to each well. Then, 100 μL of assay buffer containing 20 μM Palmitic Acid, 0.05 μCi ^14C Palmitic Acid (Perkin Elmer, NEC075H) and test compound (at selected concentration) was added to each well. The cells were then Incubated at 37° C. and 5% CO2 tissue culture incubator for 4 hours, followed by extensive washes with pre-chilled PBS. The cell plates were then frozen at −20° C. overnight. After thawing out the plates, 100 μL of 1N KOH was added to each well and the plates were incubated at 37° C. for 30 mins. Cell lysates were transferred to 1 mL Eppendorf tubes and incubated at 95° C. for 1 hour, followed by addition of 10 μL formic acid and 220 μL acetonitrile. The tubes were then centrifuged at 12,000 rpm and the supernatant dried under N2 for 2-3 hours. Dried extract was re-suspended in 60 μL hexane and loaded onto TLC plates (pre-coated with 10% AgNO3 in acetonitrile). The TLC plates were placed into glass running chamber containing 200 mL running solution (100 mL running solution: 92.5 mL chloroform, 6 mL methanol, 750 μL acetic acid, 750 μL dH2O). After running, the TLC plates were air dried and scanned on Bioscan AR-2000 for quantification of ^14C-palmitioleate and ^14C-palmitate peaks. Area under the curve of the peaks were used to calculate product/substrate ratio, an index of SCD1 activity.

SCD1 [3] = biological target: T1, SCD1; assay: SCD1 13C-palmitic acid assay in A431 cells; assay type: cell-based; conditions: read-out: A431 cells 13C-PA IC50
Description: Human epithelial carcinoma A431 cells were seeded at 100,000 cells/well in complete growth medium (DMEM, Cellgro #10-013-CM, 4.5 g/L glucose, 10% FBS) in the presence of 0.05 mg/mL human insulin (Hannas Pharmaceutical Supply Co Inc, Humanlin 100 U/ml, 4 mg/ml) in 96-well tissue culture plate. […] The cells were then returned to the tissue culture incubator (37° C. and 5% CO2) for 4 hrs. At the end of incubation, the cells were washed three times with 200 μL/well Hanks buffer (HBSS) and then stored at −20° C. until extraction.
For fatty acid extraction, after thawing out the plates, 40 μL of 1N KOH (containing 5 μM of internal standard 7,7,8,8-D4 palmitate) was added to each well and cell plates were incubated at 37° C. for 30 minutes. […] Acetonitrile (100 μL) was then added to extract fatty acids, followed by centrifugation at 3000 rpm for 10 minutes. 75 μL of extract was then transferred to a new glass vial in a 96-well cluster plate. 5 μL was injected for LC/MS analysis for detection of ^13C-palmitic acid and ^13C-palmitoleic acid. Formation of product ^13C-palmitoleic acid was determined as an index of SCD1 activity.
LC/MS analysis was performed as following. An Agilent 1100 Liquid Chromatographic System (Palo Alto, Calif.) consisting of a binary pump, a degasser and an autosampler was used. Separation of free fatty acids was performed on a Zorbax SB—C8 column (2.1×50 mm, particle size=3.5 μm). An isocratic elution was carried out with 10 mM triethylamine acetate in water:acetonitrile (3:7) at a flow rate of 0.3 mL/min. The column temperature was set at 30° C. and the sample injection volume was 5 μL. The LC run cycle was 4 min, A Micromass triple-quadrupole Quattro Micro mass […] (Waters, Beverly, Mass.) was interfaced with the LC system through a Z-spray electrospray ion source and was operated in the negative ion mode. Nitrogen was used as nebulizing gas, desolvation gas and cone curtain gas and argon was chosen as collision gas. The triple quadrupole MS source parameters were set as follows: capillary voltage, 3200V; cone voltage, 25V; extractor 2V, source temperature, 120° C.; desolvation temperature, 300° C.; cone gas flow, 50 L/h; and desolvation gas flow, 700 L/h. […] MassLynx software version 4.0 was used for system control and data processing. The signal of U—^13C-palmitoleic acid was normalized to an internal standard.

[4] = 10-day diet-induced obese C57bl/6 mice study; assay type: in vivo; conditions: DIO C57BL/6J mice, oral, 10 days
Description: Male DIO C57BL/6J mice from Taconic were maintained on high fat diet D12492 containing 60% kCal of mostly saturated fats (Research Diets Inc.) for 4 week from 6-week old. Test compounds were prepared in 0.5% hydroxypropyl methyl cellulose for oral dosing at 10 mg/kg or 30 mg/kg, either q.d. or b.i.d., as noted in the results table below. After 10-days of treatment, body weight change are recorded. Plasma liver enzyme levels (ALT and AST) were also determined.
Compound #6 of the present invention was tested according to the procedure as described above, with results as listed in Table 4, below. In the results presented below, * indicates a calculated p value<0.05 vs. vehicle-treated group.

T1 sequence (O00767 whole entry): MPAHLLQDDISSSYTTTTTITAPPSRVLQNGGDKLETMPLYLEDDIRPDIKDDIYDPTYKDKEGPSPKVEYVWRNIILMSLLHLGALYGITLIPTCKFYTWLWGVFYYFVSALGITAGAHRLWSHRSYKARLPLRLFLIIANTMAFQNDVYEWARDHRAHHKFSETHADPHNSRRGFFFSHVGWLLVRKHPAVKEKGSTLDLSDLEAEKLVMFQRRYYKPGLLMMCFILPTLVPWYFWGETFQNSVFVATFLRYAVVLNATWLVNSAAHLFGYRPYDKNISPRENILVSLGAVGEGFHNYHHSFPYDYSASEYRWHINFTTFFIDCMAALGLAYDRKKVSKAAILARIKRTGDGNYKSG
Chain of SCD1 (Rattus norvegicus (Rat), UniProt P07308) (P07308 whole entry): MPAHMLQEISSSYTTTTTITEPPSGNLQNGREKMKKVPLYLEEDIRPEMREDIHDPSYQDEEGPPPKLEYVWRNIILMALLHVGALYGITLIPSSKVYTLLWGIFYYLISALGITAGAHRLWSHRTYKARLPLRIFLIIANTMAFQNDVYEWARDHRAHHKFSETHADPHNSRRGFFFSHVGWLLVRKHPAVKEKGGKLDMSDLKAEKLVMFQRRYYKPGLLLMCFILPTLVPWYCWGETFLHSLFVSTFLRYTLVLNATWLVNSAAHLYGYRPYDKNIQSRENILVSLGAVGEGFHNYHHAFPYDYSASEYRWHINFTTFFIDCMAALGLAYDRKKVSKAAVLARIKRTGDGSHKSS

| SMILES | IC50 (SCD1 [1]) | inhibition at 1 µM (SCD1 [1]) | IC50 (SCD1 [2]) | IC50 (SCD1 [3]) | other results |
| --- | --- | --- | --- | --- | --- |
| CNC(=O)c1cccc(NC(=O)N2CCC(n3ccc4ccccc43)CC2)c1 [Compound 2, 4-(1H-indol-1-yl)-N-(3-(methylcarbamoyl)phenyl)piperidine-1-carboxamide] | 0.17 µM | 84% | 0.376 µM and 0.384 µM | – | – |
| Cc1csc(NC(=O)N2CCC(N3CCc4ccccc43)CC2)n1 [Compound 3, 4-(indolin-1-yl)-N-(4-methylthiazol-2-yl)piperidine-1-carboxamide] | 0.161 µM and 0.145 µM | 70% | 0.804 µM and 0.379 µM | – | % Inh. @ 1 μM (SCD1 [1]): 76% |
| Cc1csc(NC(=O)N2CCC(n3ccc4ccccc43)CC2)n1 [Compound 4, 4-(1H-indol-1-yl)-N-(4-methylthiazol-2-yl)-piperidine-1-carboxamide] | 0.573 µM and 0.502 µM | 70% | 0.209 µM and 0.325 µM | – | – |
| CNC(=O)c1cccc(NC(=O)N2CCC(c3noc4ccc(F)cc34)CC2)c1 [Compound 5] | 0.413 µM | 74% | 0.711 µM and 0.726 µM | – | – |
| Cc1csc(NC(=O)N2CCC(c3noc4ccc(F)cc34)CC2)n1 [Compound 6, 4-(5-fluorobenzo[d]isoxazol-3-yl)-N-(4-methylthiazol-2-yl)-piperidine-1-carboxamide] | 0.14 µM | 88% | 0.29 µM | 0.054 µM | % Inh. @ 1 μM (SCD1 [1]): 95% and 77%; Body weight change (g) ([4]; 10 mg/kg, q.d): 0.00 ± 0.36* g; Plasma ALT (U/L) ([4]; 10 mg/kg, q.d): 57 ± 7 U/L; Plasma AST (U/L) ([4]; 10 mg/kg, q.d): 89 ± 7 U/L; Body weight change (g) ([4]; 30 mg/kg, bid): −0.69 ± 0.38 * g; Plasma ALT (U/L) ([4]; 30 mg/kg, bid): 41 ± 3 U/L; Plasma AST (U/L) ([4]; 30 mg/kg, bid): 102 ± 17 U/L; Body weight change (g) ([4]; 30 mg/kg, q.d): 0.01 ± 0.24* g; Plasma ALT (U/L) ([4]; 30 mg/kg, q.d): 68 ± 12 U/L; Plasma AST (U/L) ([4]; 30 mg/kg, q.d): 93 ± 7 U/L |
| CCCc1nc2ccc(NC(=O)N3CCC(c4noc5ccc(F)cc45)CC3)cc2s1 [Compound 9, 4-(5-fluorobenzo[d]isoxazol-3-yl)-N-(2-propylbenzo[d]thiazol-6-yl)piperidine-1-carboxamide] | 0.444 µM | 79% | 0.64 µM | – | – |
| CNC(=O)c1cccc(NC(=O)N2CCC(N3CCc4ccccc43)CC2)c1 [Compound 12, 4-(indolin-1-yl)-N-(3-(methylcarbamoyl)phenyl)piperidine-1-carboxamide] | 0.151 µM | 82% | 0.755 µM | – | – |
| Cc1csc(NC(=O)N2CCC(N3CCCc4ccccc43)CC2)n1 [Compound 13, 4-(3,4-dihydroquinolin-1(2H)-yl)-N-(4-methylthiazol-2-yl)piperidine-1-carboxamide] | 0.491 µM | 81% | 0.848 µM | – | – |
| O=C(Nc1nc2c(s1)CC(O)CC2)N1CCC(c2noc3ccc(F)cc23)CC1 (stereo not drawn) [Compound 60, 4-(5-fluorobenzo[d]isoxazol-3-yl)-N-(6-hydroxy-4,5,6,7-tetrahydrobenzo[d]thiazol-2-yl)piperidine-1-carboxamide] | 0.039 µM | 98% | – | 0.001 µM | – |
| O=C(Nc1nc2c(s1)COCC2)N1CCC(N2CCc3ccc(F)cc32)CC1 [Compound 61, N-(6,7-dihydro-4H-pyrano[4,3-d]thiazol-2-yl)-4-(6-fluoroindolin-1-yl)piperidine-1-carboxamide] | 0.204 µM | 99% | – | 0.017 µM | – |
| O=C(Nc1nc2c(s1)CCCC2)N1CCC(N2CCc3ccc(F)cc32)CC1 [Compound 62, 4-(6-fluoroindolin-1-yl)-N-(4,5,6,7-tetrahydrobenzo[d]thiazol-2-yl)piperidine-1-carboxamide] | 0.347 µM | 68% | – | 0.076 µM | – |
| O=C(Nc1nc2c(s1)COCC2)N1CCC(c2noc3ccc(F)cc23)CC1 [Compound 63, N-(6,7-dihydro-4H-pyrano[4,3-d]thiazol-2-yl)-4-(5-fluorobenzo[d]isoxazol-3-yl)piperidine-1-carboxamide] | 0.085 µM | 55% | – | 0.176 µM | – |
